Experimental data: ChEMBL document CHEMBL1201862, “PubChem BioAssay data set” (2004)
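A five-concentration, 48-hour dose response in 96-well plates underlies each endpoint, interpolated linearly between surrounding concentrations. GI50: concentration for 50% inhibition of growth.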 Active and inactive are the calls of the source. Cut-off read from the data, not from the text of the source: active = GI50 up to about 1.1 µM and inactive = higher. Residues, ends and D or L forms follow the SMILES beside them. *: point of attachment. OBn = c1ccc(CO*)cc1

What was measured:
Assay in all cases: DTP human tumour cell line panel, 48 h
OVCAR-4 = system: OVCAR-4
NCI-H522 = system: NCI-H522
HCT-15 = system: HCT-15
HOP-62 = system: HOP-62
SF-268 = system: SF-268
SR = system: SR
T47D = system: T47D
U-251 = system: U-251
NCI/ADR-RES = system: NCI/ADR-RES
SW-620 = system: SW-620
OVCAR-5 = system: OVCAR-5
786-0 = system: 786-0
NCI-H460 = system: NCI-H460
K562 = system: K562
OVCAR-3 = system: OVCAR-3
A549 = system: A549
LOX IMVI = system: LOX IMVI
SK-OV-3 = system: SK-OV-3
HCC 2998 = system: HCC 2998
UACC-257 = system: UACC-257

SMILES	GI50 (OVCAR-4)	GI50 (NCI-H522)	GI50 (HCT-15)	GI50 (HOP-62)	GI50 (SF-268)	GI50 (SR)	GI50 (T47D)	GI50 (U-251)	GI50 (NCI/ADR-RES)	GI50 (SW-620)	GI50 (OVCAR-5)	GI50 (786-0)	GI50 (NCI-H460)	GI50 (K562)	GI50 (OVCAR-3)	GI50 (A549)	GI50 (LOX IMVI)	GI50 (SK-OV-3)	GI50 (HCC 2998)	GI50 (UACC-257)
NC(CCC(=O)OCc1ccccc1)C(=O)NC(CCC(=O)OCc1ccccc1)C(=O)O (configuration not stated) (H-Glu(OBn)-Glu(OBn)-OH; configuration not given here)	> 100 µM (inactive)	> 100 µM (inactive)	> 100 µM	> 100 µM (inactive)	> 100 µM (inactive)	> 100 µM (inactive)	> 100 µM (inactive)	> 100 µM (inactive)	> 100 µM (inactive)	> 100 µM (inactive)	> 100 µM (inactive)	> 100 µM (inactive)	> 100 µM (inactive)	> 100 µM (inactive)	> 100 µM (inactive)	> 100 µM (inactive)	> 100 µM (inactive)	> 100 µM (inactive)	> 100 µM (inactive)	
C[C@]12CC[C@H]3[C@@H](CCC4=C[C@@H](OC5OCC(OC6OC(CO)C(O)C(O)C6O)C(O)C5O)CC[C@@]43C=O)[C@@]1(O)CCC2C1=CC(=O)OC1 (some centres not stated)	0.237 µM (active)	0.203 µM (active)	0.504 µM	0.431 µM (active)	0.36 µM (active)	0.221 µM (active)	1.5 µM (inactive)	0.849 µM (active)	0.469 µM (active)	0.746 µM (active)	1.86 µM (inactive)	0.365 µM (active)	0.0982 µM (active)	0.397 µM (active)	0.375 µM (active)	0.165 µM (active)	0.63 µM (active)	1.13 µM (inactive)	0.421 µM (active)	1.42 µM (inactive)
COc1ccc(/C=C2\N=C(N3CCCCC3)NC2=O)cc1	> 100 µM (inactive)	57.4 µM (inactive)	> 100 µM	> 100 µM (inactive)	> 100 µM (inactive)	72.1 µM (inactive)	34.5 µM (inactive)	> 100 µM (inactive)	> 100 µM (inactive)	96.8 µM (inactive)	> 100 µM (inactive)	> 100 µM (inactive)			> 100 µM (inactive)	> 100 µM (inactive)	95.1 µM (inactive)	> 100 µM (inactive)	> 100 µM (inactive)	> 100 µM (inactive)
COC(=O)C1(Cc2ccccc2)Cc2ccc3c(c2C1=O)CCC3 (configuration not stated)	> 29.9 µM (inactive)	20.8 µM (inactive)	35 µM	> 74.6 µM (inactive)	> 66.5 µM (inactive)	28.7 µM (inactive)	11.5 µM (inactive)	36.1 µM (inactive)	23.7 µM (inactive)	> 60.4 µM (inactive)	> 63 µM (inactive)	33.7 µM (inactive)	60.8 µM (inactive)	30.6 µM (inactive)	> 49 µM (inactive)	46.3 µM (inactive)	39.3 µM (inactive)	> 80.4 µM (inactive)	38.1 µM (inactive)	35.2 µM (inactive)
CCCc1cc(-c2ccc(-c3cc(CCC)c(C=O)[nH]3)s2)[nH]c1C=O	47.4 µM (inactive)	5.45 µM (inactive)	8.61 µM	> 100 µM (inactive)	> 84.7 µM (inactive)	2.14 µM (inactive)	6.05 µM (inactive)	61.1 µM (inactive)	18.4 µM (inactive)	> 55.8 µM (inactive)	15.1 µM (inactive)	14.4 µM (inactive)	5.2 µM (inactive)	5.48 µM (inactive)	12.4 µM (inactive)	4.42 µM (inactive)	5.89 µM (inactive)	> 56.9 µM (inactive)	5.56 µM (inactive)	> 100 µM (inactive)
CC(=O)/C(=N\N=C(N)N)c1ccccc1	> 100 µM (inactive)	59.8 µM (inactive)	> 100 µM	> 100 µM (inactive)	> 100 µM (inactive)	> 100 µM (inactive)	73.1 µM (inactive)	> 100 µM (inactive)	> 100 µM (inactive)	> 100 µM (inactive)	> 100 µM (inactive)	> 100 µM (inactive)	> 100 µM (inactive)	> 100 µM (inactive)	> 100 µM (inactive)	> 100 µM (inactive)	> 100 µM (inactive)	> 100 µM (inactive)	28.1 µM (inactive)	> 100 µM (inactive)
Cc1ccc([S+]([O-])C[C@@]2(C(F)F)NC(=O)NC2=O)cc1 (some centres not stated)	> 100 µM (inactive)	> 100 µM (inactive)	> 100 µM	> 100 µM (inactive)	> 100 µM (inactive)	> 100 µM (inactive)	> 100 µM (inactive)	> 100 µM (inactive)	> 100 µM (inactive)	> 100 µM (inactive)	> 100 µM (inactive)	> 100 µM (inactive)	> 100 µM (inactive)	> 100 µM (inactive)	> 100 µM (inactive)	> 100 µM (inactive)	> 100 µM (inactive)	> 100 µM (inactive)	> 100 µM (inactive)	> 100 µM (inactive)
